Data from patent publication US20260042762A1 (Kymera Therapeutics, Inc., priority 2018, published 2026).

Biological target: T1, MerTK (Homo sapiens, UniProt Q12866)
T1 construct: endogenous in cells; host or cells: Jurkat cells
T1 sequence (Q12866 21-999): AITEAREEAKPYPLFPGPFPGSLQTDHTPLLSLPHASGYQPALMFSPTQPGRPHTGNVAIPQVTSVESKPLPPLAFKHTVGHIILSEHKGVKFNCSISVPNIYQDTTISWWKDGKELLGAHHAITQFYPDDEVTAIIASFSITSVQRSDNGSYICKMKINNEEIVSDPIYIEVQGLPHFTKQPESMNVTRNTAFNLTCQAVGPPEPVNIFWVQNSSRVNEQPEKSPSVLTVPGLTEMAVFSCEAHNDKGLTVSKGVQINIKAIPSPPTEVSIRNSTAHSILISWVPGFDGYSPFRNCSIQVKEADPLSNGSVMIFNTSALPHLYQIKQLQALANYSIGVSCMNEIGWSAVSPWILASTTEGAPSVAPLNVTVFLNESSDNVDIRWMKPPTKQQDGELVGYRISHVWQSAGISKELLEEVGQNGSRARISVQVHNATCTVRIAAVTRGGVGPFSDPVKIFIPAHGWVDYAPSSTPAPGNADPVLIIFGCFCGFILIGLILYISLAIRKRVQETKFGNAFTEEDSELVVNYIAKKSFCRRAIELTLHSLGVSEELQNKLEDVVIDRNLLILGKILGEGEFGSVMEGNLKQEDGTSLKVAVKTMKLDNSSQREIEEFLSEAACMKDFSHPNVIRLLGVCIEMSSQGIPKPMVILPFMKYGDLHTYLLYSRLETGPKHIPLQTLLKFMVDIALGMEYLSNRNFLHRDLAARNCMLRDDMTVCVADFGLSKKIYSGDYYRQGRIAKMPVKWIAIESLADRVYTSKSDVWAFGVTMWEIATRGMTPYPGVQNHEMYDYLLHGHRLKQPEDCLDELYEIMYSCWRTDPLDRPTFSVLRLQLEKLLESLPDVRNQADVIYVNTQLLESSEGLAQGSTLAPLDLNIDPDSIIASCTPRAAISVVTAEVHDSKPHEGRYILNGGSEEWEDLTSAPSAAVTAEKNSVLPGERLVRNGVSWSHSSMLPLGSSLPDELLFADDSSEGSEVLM
Assay: MerTk degradation in Jurkat cells (Western blot)
Assay type: cell-based
Conditions: Jurkat, 4 h, 0.001-1 μM, 4 hour-incubation at 37° C., read-out: Jurkat Max % MerTK Degradation
Experimental: Compounds were reconstituted in DMSO to make 10 mM stock solutions. […] Cells were seeded into 6-well plates with about 5×10^6 cells per well. 2 μL of diluted compounds were added to cells to the final concentration of 0.001-1 μM. After a 4 hour-incubation at 37° C., cells were collected into 2 mL Eppendorf tubes and centrifuged at 1,000 rpm for 5 min. The cell pellets were washed with DPBS (1×) once and resuspended in 60 μL RIPA lysis buffer with Halt Protease and Phophatase Inhibitor Cocktail. The cells were lysed on ice for 10 min, then centrifuged at 14,000 rpm for 10 min at 4° C. and the supernatants were collected for western blots.
The protein concentration of cell lysates was quantified with Pierce™ BCA Protein Assay Kit. […] BCA working reagents were prepared by mixing BCA reagent A with reagent B in 50: 1 ratio. 200 μL of the BCA working reagents were added to 25 μL of BCA standard or cell lysates in microplate, and mixed thoroughly on a plate shaker for 30 seconds. After incubation at 37° C. for 30 min, the absorbance of samples at 562 nm were measured with EnVision Plate Reader.
Protein lysates were prepared in NuPAGE™ LDS sample buffer and NuPAGE™ sample reducing agent, and incubated at 95° C. for 5 min. […] The proteins were transferred to low fluorescence PVDF membranes using the Trans-Blot Turbo Transfer System. Membranes were then blocked in Odyssey blocking buffer at RT for 1 h followed by primary incubation at 4° C. overnight. The primary antibodies were MerTK rabbit monoclonal antibody and actin mouse monoclonal antibody. Membranes were washed three times with TBST (1×), and then incubated with IR Dye 800 CW Goat anti-rabbit and IR Dye 700 CW Goat anti-mouse secondary antibodies in 1:10,000 dilution at RT for 1 h. The Western blot images were obtained using Odyssey Imaging System.

Compound `CCCCNc1ncc2c(-c3ccc(CNCCOCCCc4ccc5c(c4)n(C)c(=O)n5[C@H]4CCC(=O)NC4=O)cc3)cn([C@H]3CC[C@H](O)CC3)c2n1` [I-54, 3-[5-(3-[2-[([4-[2-(butylamino)-7-[trans-4-hydroxycyclohexyl]-7H-pyrrolo[2,3-d]pyrimidin-5-yl]phenyl]methyl)amino]ethoxy]propyl)-3-methyl-2-oxo-2,3-dihydro-1H-1,3-benzodiazol-1-yl]piperidine-2,6-dione] has a Dmax of 20 to 50%.

`Cn1c(=O)n([C@H]2CCC(=O)NC2=O)c2ccc(CCCN3CC(CCN4CCN(Cc5ccc(-c6cn([C@H]7CC[C@H](O)CC7)c7nc(NCCC(F)(F)F)ncc67)cc5)CC4)C3)cc21` [I-112, 3-(3-methyl-2-oxo-5-[3-[3-(2-[4-[(4-[7-[trans-4-hydroxycyclohexy1]-2-[(3,3,3-trifluoropropyl)amino]-7H-pyrrolo[2,3-d]pyrimidin-5-yl]phenyl)methyl]piperazin-1-yl]ethyl)azetidin-1-yl]propyl]-2,3-dihydro-1H-1,3-benzodiazol-1-y1)piperidine-2,6-dione] gave a Dmax of less than 20%.

`Cn1c(=O)n(C2CCC(=O)NC2=O)c2ccc(CCCCN3CCC(N4CCN(Cc5ccc(-c6cn([C@H]7CC[C@H](O)CC7)c7nc(NCCC(F)(F)F)ncc67)cc5)CC4)C3)cc21` (stereo partly drawn) [I-123, 3-[3-methyl-2-oxo-5-[4-(3-[4-[(4-[7-[trans-4-hydroxycyclohexyl]-2-[(3,3,3-trifluoropropyl)amino]-7H-pyrrolo[2,3-d]pyrimidin-5-yl]phenyl)methyl]piperazin-1-yl]pyrrolidin-1-yl)butyl]-2,3-dihydro-1H-1,3-benzodiazol-1-yl]piperidine-2,6-dione; formic acid] gave a Dmax greater than 50%.

In the case of `Cn1c(=O)n([C@H]2CCC(=O)NC2=O)c2ccc(CCCOCCCN3CCN(Cc4cccc(-c5cn([C@H]6CC[C@H](O)CC6)c6nc(NCCC(F)(F)F)ncc56)c4)CC3)cc21` [I-139, 3-[3-methyl-2-oxo-5-[3-(3-[4-[(3-[7-[trans-4-hydroxycyclohexyl]-2-[(3,3,3-trifluoropropyl)amino]pyrrolo[2,3-d]pyrimidin-5-yl]phenyl)methyl]piperazin-1-yl]propoxy)propy1]-1,3-benzodiazol-1-yl]piperidine-2,6-dione], the Dmax is reported as greater than 50%.

In the case of `Cn1c(=O)n([C@H]2CCC(=O)NC2=O)c2ccc(CCCOCCCN3CCN(Cc4ccc(-c5cn([C@H]6CC[C@H](O)CC6)c6nc(NC7CC7)ncc56)cc4)CC3)cc21` [I-108, 3-[5-(3-[3-[4-([4-[2-(cyclopropylamino)-7-[trans-4-hydroxycyclohexyl]-7H-pyrrolo[2,3-d]pyrimidin-5-yl]phenyl]methyl)piperazin-1-yl]propoxy]propyl)-3-methyl-2-oxo-2,3-dihydro-1H-1,3-benzodiazol-1-yl]piperidine-2,6-dione; bis(formic acid)], the Dmax is reported as greater than 50%.

In the case of `COC[C@H](C)Nc1ncc2c(-c3ccc(CN4CCN(CCOCCOCCOCCOCCNc5cccc6c5C(=O)N(C5CCC(=O)NC5=O)C6=O)CC4)cc3)cn([C@H]3CC[C@H](O)CC3)c2n1` (stereo partly drawn) [I-11, Trans-2-(2,6-dioxopiperidin-3-yl)-4-[15-(4-[[4-(2-[[(2S)-1-methoxypropan-2-yl]amino]-7-[4-hydroxycyclohexyl]-7H-pyrrolo[2,3-d]pyrimidin-5-yl)phenyl]methyl]piperazin-1-yl)-4,7,10,13-tetraoxa-1-azapentadecan-1-yl]-2,3-dihydro-1H-isoindole-1,3-dione], the Dmax is reported as greater than 50%.

For `CCC[C@H](C)Nc1ncc2c(n1)n([C@H]1CC[C@H](O)CC1)cc2[C@H]1CC[C@@H](CN2CCN(CCCOC3CN(Cc4ccc5c(c4)n(C)c(=O)n5C4CCC(=O)NC4=O)C3)CC2)CC1` (stereo partly shown) [I-222], the Dmax was greater than 50%.

`CCCCNc1ncc2c(-c3ccc(S(=O)(=O)N4CCN(C(=O)COCCOCCOCCOCC(=O)N[C@H](C(=O)N5C[C@H](O)C[C@H]5C(=O)NCc5ccc(-c6scnc6C)cc5)C(C)(C)C)CC4)cc3)nn([C@H]3CC[C@H](O)CC3)c2n1` [I-31, (2S,4R)-1-((S)-2-(tert-butyl)-17-(4-((4-(6-(butylamino)-1-(trans-4-hydroxycyclohexyl)-1H-pyrazolo[3,4-d]pyrimidin-3-yl)phenyl)sulfonyl)piperazin-1-yl)-4,17-dioxo-6,9,12,15-tetraoxa-3-azaheptadecanoyl)-4-hydroxy-N-(4-(4-methylthiazol-5-yl)benzyl)pyrrolidine-2-carboxamide] showed a Dmax of 20 to 50%.

`Cn1c(=O)n([C@H]2CCC(=O)NC2=O)c2ccc(CCCOCCOC3CCN(C[C@H]4CC[C@@H](c5cn([C@H]6CC[C@H](O)CC6)c6nc(NCCC(F)(F)F)ncc65)CC4)CC3)cc21` [I-171, 3-[3-methyl-2-oxo-5-(3-[2-[(1-[[cis-4-[7-[trans-4-hydroxycyclohexyl]-2-[(3,3,3-trifluoropropyl)amino]pyrrolo[2,3-d]pyrimidin-5-yl]cyclohexyl]methyl]piperidin-4-yl)oxy]ethoxy]propyl)-1,3-benzodiazol-1-y1]piperidine-2,6-dione] showed a Dmax greater than 50%.

With `COc1ccc(Nc2nc(Nc3cc(OCCOCCOCCOCCOCC(=O)N[C@H](C(=O)N4C[C@H](O)C[C@H]4C(=O)NCc4ccc(-c5scnc5C)cc4)C(C)(C)C)c(OC)cc3C)ncc2Cl)c(NS(C)(=O)=O)c1` [I-228] the Dmax was 20 to 50%.

`COC[C@@H](C)Nc1ncc2c(-c3ccc(CN4CCN(CCOCCOCCOCCOCCNc5cccc6c5n(C)c(=O)n6C5CCC(=O)NC5=O)CC4)cc3)cn([C@H]3CC[C@H](O)CC3)c2n1` (stereo partly drawn) [I-5, Trans-3-[4-[15-(4-[[4-(2-[[(2R)-1-methoxypropan-2-yl]amino]-7-[4-hydroxycyclohexyl]-7H-pyrrolo[2,3-d]pyrimidin-5-yl)phenyl]methyl]piperazin-1-yl)-4,7,10,13-tetraoxa-1-azapentadecan-1-yl]-3-methyl-2-oxo-2,3-dihydro-1H-1,3-benzodiazol-1-yl]piperidine-2,6-dione bis(formic acid)] was tested, and the Dmax was less than 20%.

For `Cc1ncsc1-c1ccc(CNC(=O)[C@@H]2C[C@@H](O)CN2C(=O)[C@@H](NC(=O)COCCOCCN2CCN(Cc3ccc(-c4cn([C@H]5CC[C@H](O)CC5)c5nc(NCCC(F)(F)F)ncc45)cc3)CC2)C(C)(C)C)cc1` [I-165, (2S,4R)-1-[(2S)-3,3-dimethyl-2-[2-[2-(2-[4-[(4-[7-[trans-4-hydroxycyclohexyl]-2-[(3,3,3-trifluoropropyl)amino]pyrrolo[2,3-d]pyrimidin-5-yl]phenyl)methyl]piperazin-1-yl]ethoxy)ethoxy]acetamido]butanoyl]-4-hydroxy-N-[[4-(4-methyl-1,3-thiazol-5-yl)phenyl]methyl]pyrrolidine-2-carboxamide], the Dmax was less than 20%.

In the case of `Cn1c(=O)n([C@H]2CCC(=O)NC2=O)c2ccc(CCCOCCCN3CCN(Cc4ccc(-c5cn([C@H]6CC[C@H](O)CC6)c6nc(NCC(F)F)ncc56)cc4)CC3)cc21` [I-100, 3-[5-[3-(3-[4-[(4-[2-[(2,2-difluoroethyl)amino]-7-[trans-4-hydroxycyclohexyl]-7H-pyrrolo[2,3-d]pyrimidin-5-yl]phenyl)methyl]piperazin-1-yl]propoxy)propyl]-3-methyl-2-oxo-2,3-dihydro-1H-1,3-benzodiazol-1-yl]piperidine-2,6-dione; formic acid], the Dmax is reported as greater than 50%.
